In ChEMBL document CHEMBL3885861, “Open TG-GATES”:

Species on record: Rattus norvegicus
Test: Open TG-GATES - Regimen: Single
Type: toxicity, organism-based, Sprague-Dawley
Set-up: regimen Single, gender Male, age 6 weeks
Conditions: in vivo, po, route gavage; for APTT / Bas / Eos / Fbg / Hb / Ht / Lym / MCH / MCHC / MCV / Mono / Neu / PT / Plat / RBC / Ret / WBC: tissue Blood; for KIDNEY_L / KIDNEY_R / KIDNEY_TOTAL: tissue Kidney; for LIVER: tissue Liver; for A/G / ALP / ALT / AST / BUN / CRE / Ca / Cl / DBIL / GLC / IP / K / LDH / Na / PL / RALB / TBIL / TC / TG / TP / gamma-GTP: tissue Plasma
[1] = 0 mg/kg, 3 h, dose level Control
[2] = 0 mg/kg, 6 h, dose level Control
[3] = 0 mg/kg, 9 h, dose level Control
[4] = 0 mg/kg, 24 h, dose level Control

## C[C@](N)(Cc1ccc(O)c(O)c1)C(=O)O [METHYLDOPA]
[1]
  TERMINAL_BW: 189.8 g
  APTT: 16.9 s
  Bas: 0%
  Eos: 0.8%
  Fbg: 253.4 mg/dL
  Hb: 13.1 g/dL
  Ht: 39.1%
  Lym: 75%
  MCH: 22.2 pg
  MCHC: 33.4%
  MCV: 66.5 fL
  Mono: 3.2%
  Neu: 20.4%
  PT: 12.3 s
  Plat: 118.6 x10_4/uL
  RBC: 588.6 x10_4/ul
  Ret: 11%
  WBC: 80.9 x10_2/uL
  KIDNEY_L: 0.8 g
  KIDNEY_R: 0.8 g
  KIDNEY_TOTAL: 1.6 g
  LIVER: 8 g
  A/G: 0.9
  ALP: 1671.4 IU/L
  ALT: 54.6 IU/L
  AST: 84.8 IU/L
  BUN: 10 mg/dL
  CRE: 0.2 mg/dL
  Ca: 11.6 mg/dL
  Cl: 106.8 meq/L
  DBIL: 0.022 mg/dL
  GLC: 164.4 mg/dL
  IP: 9.4 mg/dL
  K: 4.6 meq/L
  LDH: 61.2 IU/L
  Na: 141.8 meq/L
  PL: 147.2 mg/dL
  RALB: 2.6 g/dL
  TBIL: 0.08 mg/dL
  TC: 88 mg/dL
  TG: 68.4 mg/dL
  TP: 5.6 g/dL
  gamma-GTP: 1.2 IU/L
[2]
  TERMINAL_BW: 187.9 g
  APTT: 17 s
  Bas: 0%
  Eos: 1%
  Fbg: 266.8 mg/dL
  Hb: 13.4 g/dL
  Ht: 40.1%
  Lym: 70.4%
  MCH: 21.6 pg
  MCHC: 33.5%
  MCV: 64.5 fL
  Mono: 3.8%
  Neu: 24.4%
  PT: 12.4 s
  Plat: 120.7 x10_4/uL
  RBC: 622.2 x10_4/ul
  Ret: 9.7%
  WBC: 82.2 x10_2/uL
  KIDNEY_L: 0.8 g
  KIDNEY_R: 0.8 g
  KIDNEY_TOTAL: 1.6 g
  LIVER: 7.3 g
  A/G: 0.9
  ALP: 1652.4 IU/L
  ALT: 45.8 IU/L
  AST: 74 IU/L
  BUN: 8.4 mg/dL
  CRE: 0.2 mg/dL
  Ca: 11.2 mg/dL
  Cl: 109 meq/L
  DBIL: 0.014 mg/dL
  GLC: 177.6 mg/dL
  IP: 10.6 mg/dL
  K: 4.6 meq/L
  LDH: 54.2 IU/L
  Na: 143.4 meq/L
  PL: 128.4 mg/dL
  RALB: 2.6 g/dL
  TBIL: 0.076 mg/dL
  TC: 81.2 mg/dL
  TG: 43 mg/dL
  TP: 5.6 g/dL
  gamma-GTP: 1.2 IU/L
[3]
  TERMINAL_BW: 189.5 g
  APTT: 17.4 s
  Bas: 0%
  Eos: 1%
  Fbg: 242 mg/dL
  Hb: 12.7 g/dL
  Ht: 37.7%
  Lym: 75.4%
  MCH: 21.7 pg
  MCHC: 33.7%
  MCV: 64.2 fL
  Mono: 2.4%
  Neu: 20.8%
  PT: 13.6 s
  Plat: 112.1 x10_4/uL
  RBC: 588.8 x10_4/ul
  Ret: 10.4%
  WBC: 74.2 x10_2/uL
  KIDNEY_L: 0.8 g
  KIDNEY_R: 0.8 g
  KIDNEY_TOTAL: 1.7 g
  LIVER: 6.9 g
  A/G: 0.9
  ALP: 1737.2 IU/L
  ALT: 44.4 IU/L
  AST: 77.2 IU/L
  BUN: 10.2 mg/dL
  CRE: 0.1 mg/dL
  Ca: 10.9 mg/dL
  Cl: 108.2 meq/L
  DBIL: 0.014 mg/dL
  GLC: 182.6 mg/dL
  IP: 11 mg/dL
  K: 4.4 meq/L
  LDH: 88 IU/L
  Na: 143.2 meq/L
  PL: 114.8 mg/dL
  RALB: 2.4 g/dL
  TBIL: 0.076 mg/dL
  TC: 74.4 mg/dL
  TG: 30.6 mg/dL
  TP: 5.1 g/dL
  gamma-GTP: 1.2 IU/L
[4]
  TERMINAL_BW: 194.8 g
  APTT: 17 s
  Bas: 0%
  Eos: 1%
  Fbg: 237.6 mg/dL
  Hb: 13 g/dL
  Ht: 38.2%
  Lym: 75.8%
  MCH: 22 pg
  MCHC: 34.1%
  MCV: 64.4 fL
  Mono: 3.4%
  Neu: 19.4%
  PT: 12.8 s
  Plat: 113.1 x10_4/uL
  RBC: 594.4 x10_4/ul
  Ret: 9.5%
  WBC: 77.2 x10_2/uL
  KIDNEY_L: 0.9 g
  KIDNEY_R: 0.9 g
  KIDNEY_TOTAL: 1.8 g
  LIVER: 8.8 g
  A/G: 0.9
  ALP: 1858.4 IU/L
  ALT: 55.2 IU/L
  AST: 83 IU/L
  BUN: 13 mg/dL
  CRE: 0.2 mg/dL
  Ca: 11 mg/dL
  Cl: 107.2 meq/L
  DBIL: 0.008 mg/dL
  GLC: 183.6 mg/dL
  IP: 7.8 mg/dL
  K: 4.3 meq/L
  LDH: 69.8 IU/L
  Na: 142 meq/L
  PL: 128.6 mg/dL
  RALB: 2.5 g/dL
  TBIL: 0.062 mg/dL
  TC: 72.6 mg/dL
  TG: 58.2 mg/dL
  TP: 5.3 g/dL
  gamma-GTP: 1 IU/L
60 mg/kg, 3 h, dose level Low
  TERMINAL_BW: 185.6 g
  APTT: 17.5 s
  Bas: 0%
  Eos: 0.6%
  Fbg: 265.2 mg/dL
  Hb: 12.9 g/dL
  Ht: 38.4%
  Lym: 79%
  MCH: 21.9 pg
  MCHC: 33.5%
  MCV: 65.4 fL
  Mono: 3.2%
  Neu: 16.6%
  PT: 12.5 s
  Plat: 123.5 x10_4/uL
  RBC: 587 x10_4/ul
  Ret: 10.7%
  WBC: 81.1 x10_2/uL
  KIDNEY_L: 0.8 g
  KIDNEY_R: 0.8 g
  KIDNEY_TOTAL: 1.6 g
  LIVER: 7.8 g
  A/G: 0.9
  ALP: 1439.4 IU/L
  ALT: 54.2 IU/L
  AST: 80 IU/L
  BUN: 9 mg/dL
  CRE: 0.1 mg/dL
  Ca: 11.5 mg/dL
  Cl: 107.2 meq/L
  DBIL: 0.02 mg/dL
  GLC: 186 mg/dL
  IP: 10.1 mg/dL
  K: 4.4 meq/L
  LDH: 60.4 IU/L
  Na: 143.8 meq/L
  PL: 142.8 mg/dL
  RALB: 2.6 g/dL
  TBIL: 0.078 mg/dL
  TC: 82.2 mg/dL
  TG: 70.2 mg/dL
  TP: 5.5 g/dL
  gamma-GTP: 1.4 IU/L
60 mg/kg, 6 h, dose level Low
  TERMINAL_BW: 189.2 g
  APTT: 16.7 s
  Bas: 0%
  Eos: 1%
  Fbg: 250.4 mg/dL
  Hb: 13 g/dL
  Ht: 38.6%
  Lym: 78.8%
  MCH: 21.7 pg
  MCHC: 33.6%
  MCV: 64.8 fL
  Mono: 3.2%
  Neu: 16.2%
  PT: 12.4 s
  Plat: 117 x10_4/uL
  RBC: 596.4 x10_4/ul
  Ret: 10.3%
  WBC: 64 x10_2/uL
  KIDNEY_L: 0.8 g
  KIDNEY_R: 0.8 g
  KIDNEY_TOTAL: 1.6 g
  LIVER: 7.6 g
  A/G: 0.9
  ALP: 1752.4 IU/L
  ALT: 50.2 IU/L
  AST: 82 IU/L
  BUN: 6.4 mg/dL
  CRE: 0.2 mg/dL
  Ca: 11.2 mg/dL
  Cl: 107.6 meq/L
  DBIL: 0.008 mg/dL
  GLC: 184 mg/dL
  IP: 11.4 mg/dL
  K: 4.7 meq/L
  LDH: 49.8 IU/L
  Na: 144.2 meq/L
  PL: 125.8 mg/dL
  RALB: 2.5 g/dL
  TBIL: 0.064 mg/dL
  TC: 79 mg/dL
  TG: 45.6 mg/dL
  TP: 5.4 g/dL
  gamma-GTP: 1 IU/L
60 mg/kg, 9 h, dose level Low
  TERMINAL_BW: 187.5 g
  APTT: 17.1 s
  Bas: 0%
  Eos: 0.8%
  Fbg: 248.8 mg/dL
  Hb: 12.8 g/dL
  Ht: 37.7%
  Lym: 74.4%
  MCH: 22 pg
  MCHC: 34%
  MCV: 64.7 fL
  Mono: 2.6%
  Neu: 21.2%
  PT: 12.4 s
  Plat: 117.7 x10_4/uL
  RBC: 583 x10_4/ul
  Ret: 10%
  WBC: 65.1 x10_2/uL
  KIDNEY_L: 0.8 g
  KIDNEY_R: 0.8 g
  KIDNEY_TOTAL: 1.6 g
  LIVER: 7.1 g
  A/G: 0.9
  ALP: 1707.4 IU/L
  ALT: 47 IU/L
  AST: 75.6 IU/L
  BUN: 10.6 mg/dL
  CRE: 0.1 mg/dL
  Ca: 11 mg/dL
  Cl: 107.4 meq/L
  DBIL: 0.008 mg/dL
  GLC: 201.2 mg/dL
  IP: 10.6 mg/dL
  K: 4.5 meq/L
  LDH: 51.4 IU/L
  Na: 144.2 meq/L
  PL: 111.8 mg/dL
  RALB: 2.5 g/dL
  TBIL: 0.064 mg/dL
  TC: 71.2 mg/dL
  TG: 32.4 mg/dL
  TP: 5.2 g/dL
  gamma-GTP: 1 IU/L
60 mg/kg, 24 h, dose level Low
  TERMINAL_BW: 194.5 g
  APTT: 18.6 s
  Bas: 0%
  Eos: 1.2%
  Fbg: 242.4 mg/dL
  Hb: 13.1 g/dL
  Ht: 38.9%
  Lym: 78.4%
  MCH: 21.4 pg
  MCHC: 33.7%
  MCV: 63.6 fL
  Mono: 2.8%
  Neu: 17.4%
  PT: 12.6 s
  Plat: 115.8 x10_4/uL
  RBC: 612.6 x10_4/ul
  Ret: 9.4%
  WBC: 81.6 x10_2/uL
  KIDNEY_L: 0.8 g
  KIDNEY_R: 0.8 g
  KIDNEY_TOTAL: 1.6 g
  LIVER: 9.2 g
  A/G: 0.9
  ALP: 1854.6 IU/L
  ALT: 52 IU/L
  AST: 81.2 IU/L
  BUN: 15.6 mg/dL
  CRE: 0.2 mg/dL
  Ca: 11.4 mg/dL
  Cl: 108 meq/L
  DBIL: 0.016 mg/dL
  GLC: 189.8 mg/dL
  IP: 8 mg/dL
  K: 4.5 meq/L
  LDH: 98.4 IU/L
  Na: 143.6 meq/L
  PL: 136.2 mg/dL
  RALB: 2.6 g/dL
  TBIL: 0.064 mg/dL
  TC: 71.4 mg/dL
  TG: 85.4 mg/dL
  TP: 5.5 g/dL
  gamma-GTP: 1 IU/L
